These results are taken from patent EP0922455A1, “HIV-1 PROTEASE INHIBITORS, PROCESS FOR PRODUCING THE SAME, AND MEDICINAL COMPOSITIONS” (NISSUI PHARMACEUTICAL CO., LTD., priority 1997, dated 1998).

Test [1] has as its target T1, HIV-1 protease (Human immunodeficiency virus type 1 group M subtype B, UniProt P03366). Kind of test: inhibitory activity against HIV-1 protease (cleavage of substrate Suc-Ser-Gln-Asn-Tyr-Pro-Ile-Val-Gln, HPLC / PICO-TAG analysis). Set-up: β-galactosidase (fusion partner in the expressed precursor); made in house; host or cells: E. coli K12 (UT481). Type of test: biochemical. As to conditions: for pIC50: same way as in 2) in Example 1, read-out: IC50; for IC50: class symbols, inhibitory effect at 500 µM or less, read-out: IC50(µM) (Inhibitory effect). As to the method: (§1) Plasmid pLB550-1 for expressing a fusion protein of partial pol protein containing HIV-1 protease and β-galactosidase was transfected into E. coli K12 (UT481) [Werman, K. F. et al. J. Bacteriol, 163: 376 - 384 (1985)] by the CaCl2 method, and was enzyme-induced by isopropyl-β-D(-)-thiogalactopyranoside and was cultured for 6 hours. Thereafter, the bacteria were collected. The bacterial were treated with lysozyme and crashed with glass beads. Subsequently, the solubilized supernatant was purified by DEAE-cellulofine, SP-Toyopearl and pepstatin A agarose column chromatography, to obtain a purified HIV-1 protease.
Synthesized peptide composed of Suc-Ser-Gln-Asn-Tyr-Pro-Ile-Val-Gln as a substrate was dissolved into 50 mM MES-NaOH buffer solution (pH 5.5) so that its concentration in enzyme reaction would be 0.57 mM, 1.25 mM, 1.43 mM, 1.67 mM and 2.0 mM. Into 50 µl of these substrate solutions, 50 µl of the purified enzyme solution of HIV-1 protease, obtained in the aforementioned preparing step, was added and then enzyme reaction was carried out at 37°C for 0 , 5, 10 and 15 minutes, respectively. To these solutions, 11.1 µl of acetonitryl containing 1% TFA was added to stop the enzyme reaction. The peptides obtained by the enzyme reaction were separated by high-performance liquid chromatography. Thereafter, enzyme activity thereof was measured by means of a PICO-TAG amino acid composition analyzing device. The initial velocities at the respective concentrations of the substrate were calculated and then analysis was performed based on by Lineweaver-Burk plots. […] In the substrate, the cleavage region was between Tyr and Pro.
On the other hand, the synthesized peptide, Suc-Ser-Gln-Asn-Tyr-Pro-Ile-Val-Gln as a substrate was used to measure inhibitory activity of the peptide of the sequence number 1 against HIV-1 protease as follows: 50 µl of the enzyme solution was added to 30 µl of solution of the peptide of the sequence number 1 in which the peptide was dissolved into 50 mM of MES-NaOH buffer solution (pH 5.5) so that its final concentration would be 10, 20, 40, 100 and 200 µM, and then enzyme reaction was carried out at 37 °C for 30 minutes.
Next, the solution of the substrate, Suc-Ser-Gln-Asn-Tyr-Pro-Ile-Val-Gln was added thereto so that its final concentration would be 1 mM, and then enzyme reaction was carried out at 37 °C for 0, 5, 10 and 15 minutes. To these solutions, 11.1 µl of acetonitryl containing 1% TFA was added to stop the enzyme reaction. The peptides obtained by the enzyme reaction were separated by high-performance liquid chromatography. Thereafter, enzyme activity thereof was measured by means of a PICO-TAG amino acid composition analyzing device. […] (The relative activity is represented as a percentage relative to the enzyme activity (value: 100) in the absence of the peptide of the sequence number 2.) From this graph, IC50 was calculated and obtained, so that IC50 was 10 µM.
50 µl of the enzyme solution was added to 30 µl of the peptide of the sequence number 2 dissolved into 50 mM of MES-NaOH buffer solution so that its final concentration would be 10 µM and then enzyme reaction was carried out at 37 °C for 30 minutes. The solution of the substrate, Suc-Ser-Gln-Asn-Tyr-Pro-Ile-Val-Gln was added thereto so that its final concentration would be 0.579 1.0, 1.43, 2.0 and 2.5 mM, and then enzyme reaction was carried out at 37 °C for 0, 5, 10 and 15 minutes. To these solutions, 11.1 µl of acetonitryl containing 1% TFA was added to stop the enzyme reaction, and then analysis was performed from Lineweaver-Burk plots. […] A control experiment was carried out in the absence of the peptide of the sequence number 2, in the same way.
(§2) Concerning these 30 kinds of compounds, inhibitory effect against of HIV protease and IC50 were measured in the same way as in 2) in Example 1.

The target of test [2] is T1, HIV-1 protease. The description is as above. It is filed as biochemical. Set-up: partial pol protein containing HIV-1 protease; β-galactosidase (fusion partner in the expressed precursor); made in house; host or cells: E. coli K12 (UT481). As to conditions: same way as in 2) in Example 1. As for the experimental part: as §1
Synthesized peptide composed of Suc-Ser-Gln-Asn-Tyr-Pro-Ile-Val-Gln as a substrate was dissolved into 50 mM MES-NaOH buffer solution (pH 5.5) so that its concentration in enzyme reaction would be 0.57 mM, 1.25 mM, 1.43 mM, 1.67 mM and 2.0 mM. […] Thereafter, enzyme activity thereof was measured by means of a PICO-TAG amino acid composition analyzing device. The initial velocities at the respective concentrations of the substrate were calculated and then analysis was performed based on by Lineweaver-Burk plots. […]
as §2

Test [3] deals with T1, HIV-1 protease. More on the design: β-galactosidase (fusion partner in the expressed precursor); made in house; host or cells: E. coli K12 (UT481). As to conditions: Biochem. Biophys. Res. Commun. 194: 595 - 600; cited from earlier work.

pIC50: −log10 of the molar value. Read-outs that look alike come from different tables or passages of the source. *1 amine or outer side, *2 acyl side, *3 side chain or, on linkers, in order; H or OH if unused. Where a SMILES comes first, the peptide text is derived from it. Where no end group is shown, it is not given here. [ ]: non-standard residue; d: D form. The star is where a group is joined. Myristoyl = CCCCCCCCCCCCCC(=O)*; Suc = O=C(CCC(=O)[*:2])[*:1]; Aoc = NCCCCCCCC(=O)O; Ahx = NCCCCCC(=O)O

Take `CCCCCCCCCCCCCC(=O)N[C@@H](C)C(=O)N[C@@H](CCC(=O)O)C(=O)N[C@@H](C)C(=O)N[C@@H](CCSC)C(=O)N[C@@H](CO)C(=O)N[C@@H](CCC(N)=O)C(=O)O` [Compound 18, N-Myr-AEAMSQ] (Myristoyl-AEAMSQ-OH): at HIV-1 protease [1], the pIC50 (in general, the negative decadic logarithm of the IC50, by convention in mol/L) was 4.10. Take `CCCCCCCCCCCCCC(=O)N[C@@H](C)C(=O)N[C@@H](CCC(=O)O)C(=O)N[C@@H](C)C(=O)N[C@@H](CCSC)C(=O)O` [Compound 20, N-Myr-AEAM] (Myristoyl-AEAM-OH): the negative-log IC50 (pIC50) at HIV-1 protease [1] was 4.80. On to AAAMSQVTN [Compound 7, AAAMSQVTN], for which the IC50 – broadly, the concentration needed to halve the response being measured – on HIV-1 protease [1] is at most 500 µM. On the same count and under the same terms, the figure for AEAMSQV [Compound 13, AEAMSQV] is at least 500 µM; for `CSCC[C@H](NC(=O)[C@H](C)NC(=O)[C@H](CCC(=O)O)NC(=O)[C@H](C)N)C(=O)N[C@@H](CO)C(=O)N[C@@H](CCC(N)=O)C(=O)NCCCCCC(=O)O` [Compound 15, AEAMSQAhx] (H-AEAMSQ[Ahx]-OH) it is at least 500 µM. For AEAMSQVTL [Compound 11, AEAMSQVTL], the negative logarithm of the IC50 (pIC50) on HIV-1 protease [1] is 4.28. Take `CC(C)[C@H](N)C(=O)N[C@H](C(=O)N[C@@H](CC(N)=O)C(=O)O)[C@@H](C)O` [Compound 21, VTN] (H-Val-Thr-Asn-OH): the 50% inhibitory concentration (IC50) on HIV-1 protease [1] was at least 500 µM. As for VTNTATIM [Compound 22, VTNTATIM], the concentration for half-maximal inhibition (IC50) at HIV-1 protease [1] was at least 500 µM. As to `CSCC[C@H](NC(=O)[C@H](C)NC(=O)[C@H](CCC(=O)O)NC(=O)[C@H](C)N)C(=O)N[C@@H](CO)C(=O)N[C@@H](CCC(N)=O)C(=O)NCCCCCCCC(=O)O` [Compound 14, AEAMSQAoc] (H-AEAMSQ[Aoc]-OH), the IC50 at HIV-1 protease [1] was at least 500 µM. Turning to AEAMSQVTN [Compound 6, AEAMSQVTN], on HIV-1 protease [1], the pIC50 was 5.22. On to `CSCC[C@H](NC(=O)[C@H](C)NC(=O)[C@H](CCC(=O)O)NC(=O)[C@H](C)NC(=O)CCC(=O)O)C(=O)N[C@@H](CO)C(=O)N[C@@H](CCC(N)=O)C(=O)NCCCCCC(=O)O` [Compound 16, Suc-AEAMSQAhx] (Suc-AEAMSQ[Ahx]-OH), for which the IC50 on HIV-1 protease [1] is at least 500 µM.

Take `CC[C@H](C)[C@H](NC(=O)[C@@H](NC(=O)[C@H](C)NC(=O)[C@@H](NC(=O)[C@H](CC(N)=O)NC(=O)[C@@H](NC(=O)[C@@H](NC(=O)[C@H](CCC(N)=O)NC(=O)[C@H](CO)NC(=O)[C@H](CCSC)NC(=O)[C@H](C)NC(=O)[C@H](CCC(=O)O)NC(=O)[C@H](C)N)C(C)C)[C@@H](C)O)[C@@H](C)O)[C@@H](C)O)C(=O)N[C@@H](CCSC)C(=O)O` [Compound 4, AEAMSQVTNTATIM]: the IC50 at HIV-1 protease [1] was at most 500 µM. For `CSCC[C@H](NC(=O)[C@H](C)NC(=O)[C@H](CCC(=O)O)NC(=O)[C@H](C)N)C(=O)O` [Compound 19, AEAM] (H-AEAM-OH), at HIV-1 protease [1], the concentration for half-maximal inhibition (IC50) is at least 500 µM. For `CSCC[C@H](NC(=O)CCCCCCCN)C(=O)O` [Compound 27, N-AocM], the IC50 on HIV-1 protease [1] is at least 500 µM. On to `CSCC[C@H](NC(=O)CCCCCCCN)C(=O)NCCCCCCCC(=O)O` [Compound 28, N-AocMAoc], for which the half-inhibitory concentration (IC50) on HIV-1 protease [1] was at least 500 µM. On the same count and under the same terms, the figure for AEAMAQVTN [Compound 9, AEAMAQVTN] is at most 500 µM; for `CSCC[C@H](NC(=O)CCCCCCCN)C(=O)NCCCCCCCC(=O)NCCCCCCCC(=O)O` [Compound 29, N-AocMAocAoc] it is at least 500 µM. Take `CCCCCCCCCCCC(=O)N[C@@H](CCSC)C(=O)O` [Compound 25, N-Lau-M]: the pIC50 on HIV-1 protease [2] is 3.91. As for `CC[C@H](C)[C@H](NC(=O)[C@@H](NC(=O)[C@H](C)NC(=O)[C@@H]1CCCN1C(=O)[C@H](CC(N)=O)NC(=O)[C@@H](NC(=O)[C@@H](NC(=O)[C@H](CCC(N)=O)NC(=O)[C@H](CO)NC(=O)[C@H](CCSC)NC(=O)[C@H](C)NC(=O)[C@H](CCC(=O)O)NC(=O)[C@H](C)N)C(C)C)[C@@H](C)O)[C@@H](C)O)C(=O)N[C@@H](CCSC)C(=O)O` [Compound 3, AEAMSQVTNPATIM], at HIV-1 protease [1], the half-inhibitory concentration (IC50) was at least 500 µM.

Turning to “AEAMSQVANTATIM [Compound 5, AEAMSQVANTATIM]”, the half-inhibitory concentration (IC50) on HIV-1 protease [1] is at most 500 µM. For “AEAMSQVTNSATIM [Compound 2, AEAMSQVTNSATIM]”, the pIC50 on HIV-1 protease [1] was 4.66. Turning to AEAMSQVT [Compound 12, AEAMSQVT], the IC50 at HIV-1 protease [1] was at least 500 µM. As for AEAASQVTN [Compound 8, AEAASQVTN], the IC50 at HIV-1 protease [1] was at least 500 µM. `CCCCCCCCCCCCCC(=O)N[C@@H](CCSC)C(=O)O` [Compound 23, N-Myr-M] gave a negative logarithm of the IC50 (pIC50) against HIV-1 protease [2] of 4.36. Regarding AEAMSQ [Compound 17, AEAMSQ], the 50% inhibitory concentration (IC50) on HIV-1 protease [1] was at least 500 µM. Turning to `CC[C@H](C)[C@H](NC(=O)[C@@H]1CCCN1C(=O)[C@H](Cc1ccc(O)cc1)NC(=O)[C@H](CC(N)=O)NC(=O)[C@H](CCC(N)=O)NC(=O)[C@H](CO)NC(=O)CCC(=O)O)C(=O)N[C@H](C(=O)N[C@@H](CCC(N)=O)C(=O)O)C(C)C` [Suc-Ser-Gln-Asn-Tyr-Pro-Ile-Val-Gln, reference compound] (Suc-SQNYPIVQ-OH), the Michaelis constant (Km) (commonly the concentration of substrate that gives half-maximal velocity) on HIV-1 protease [1] (substrate 0.57-2.0 mM, pH 5.5, 37°C, Lineweaver-Burk plots (Fig. 1)) was 2200 µM. For AEAMSQVAN [Compound 10, AEAMSQVAN], the 50% inhibitory concentration (IC50) on HIV-1 protease [1] was at least 500 µM. On to Ac-TVSFNF, for which the inhibitory activity entry on HIV-1 protease [3] is on record as “has inhibitory activity”. Take `CSCC[C@H](NC(=O)CCCCCCCNC(=O)CCCCCCCN)C(=O)NCCCCCCCC(=O)O` [Compound 30, N-AocAocMAoc]: the IC50 at HIV-1 protease [1] was at least 500 µM.
